Test results reported in patent publication US20200405752A1, “ANTITUMOR AGENT, ANTITUMOR EFFECT ENHANCER, AND ANTITUMOR KIT” (FUJIFILM Corporation, priority 2018, published 2020).

Test system: human ovarian cancer cell line ES-2
Assay: Cell viability (CellTiter Glo) of ES-2 in combination with cisplatin or carboplatin
Format: cell-based
Details: for CI: ES-2 Cell; for viability at 0.001 µM / viability at 0.003 µM / viability at 0.01 µM / viability at 0.03 µM / viability at 0.1 µM / viability at 0.3 µM / viability at 1 µM / viability at 3 µM / viability at 10 µM / IC50: Homo sapiens; for viability at 0.001 µM / viability at 0.003 µM / viability at 0.01 µM / viability at 0.03 µM / viability at 0.1 µM / viability at 0.3 µM / viability at 1 µM / viability at 3 µM / viability at 10 µM: 72 h, 3 days; for viability at 0.001 µM: test substance 1 nM; for viability at 0.003 µM: test substance 3 nM; for viability at 0.01 µM: test substance 10 nM; for viability at 0.03 µM: test substance 30 nM; for viability at 0.1 µM: test substance 100 nM; for viability at 0.3 µM: test substance 300 nM; for viability at 1 µM: test substance 1000 nM; for viability at 3 µM: test substance 3000 nM; for viability at 10 µM: test substance 10000 nM
From the text: On the combinational effect of the embodiment of the invention, the results of evaluation using a combination index (CI) which is a quantitative index of the combinational effect are shown. The CI can be calculated by the following equation according to Cancer Research, 2010, Vol. 70, pp. 440 to 446.
That is, in a case where the drugs to be used in combination are drug 1 and drug 2, the CI at a certain drug concentration is
CI={(cell viability in case of using drug 1 and drug 2 in combination)/100}/{[(cell viability in case of using drug 1)/100]×[(cell viability in case of using drug 2)/100]}
Evaluation of antitumor activity against human ovarian cancer cell lines ES-2 and SK-OV-3 in combination with cisplatin and carboplatin
Furthermore, the antitumor activity against human ovarian cancer-derived cell lines ES-2 and SK-OV-3 in combination with cisplatin and carboplatin was evaluated in the same manner as in Test Example 1.
Gemcitabine, cisplatin, carboplatin, and methanesulfonate of Compound A were used as test substances.
Gemcitabine hydrochloride (manufactured by Plantex Co., Ltd.) dissolved in DMSO was used as gemcitabine. Cisplatin (Cat. #039-20091, manufactured by Wako Pure Chemical Industries, Ltd.) and carboplatin (Cat. #C2043, manufactured by Tokyo Chemical Industry Co., Ltd.), each of which dissolved in McCoy's 5a medium (Cat. #16600-082, manufactured by Thermo Fisher Scientific Inc.) supplemented with 1% serum (Cat. #10437-028, manufactured by Thermo Fisher Scientific Inc.), were used as cisplatin and carboplatin, respectively.
Human ovarian cancer cell line ES-2 and SK-OV-3 cells were subcultured in 10% serum-supplemented medium. During this test, all cell cultures were carried out in a CO2 incubator (set to 37° C. and 5% CO2, saturated with water vapor). ES-2 cells were diluted with 10% serum-supplemented medium to a cell density of 10000 cells/well/100 μL and SK-OV-3 cells were diluted with 10% serum-supplemented medium to a cell density of 15000 cells/well/100 μL, and then seeded on a 96-well plate. On the next day, the culture supernatant of each well was discarded, followed by washing twice with 150 μL of 1% serum-supplemented medium, and 100 μL of 1% serum-supplemented medium was added thereto, followed by culturing for 3 days.
The methanesulfonate of Compound A and gemcitabine were dissolved in DMSO to prepare 100 mmol/L DMSO solutions thereof. The thus-prepared DMSO solutions were diluted sequentially with DMSO to prepare DMSO solutions having a final treatment concentration of 1000-fold dilution. Cisplatin and carboplatin were dissolved in 1% serum-supplemented medium to prepare a cisplatin solution 60 μmol/L and a carboplatin solution 600 μmol/L, respectively. The DMSO diluted solutions of Compound A and gemcitabine were diluted with the cisplatin solution (60 μmol/L) or the Carboplatin solution (600 μmol/L) to prepare treatment liquids having a final treatment concentration of 6-fold dilution. Compound A and gemcitabine were used with a maximum concentration of 10 μmol/L at a common ratio of 1/3 and 9 concentrations in combination with cisplatin or Carboplatin.
20 μL of Compound A or gemcitabine diluted with the cisplatin solution (60 μmol/L) or the Carboplatin solution (600 μmol/L) was added to each well. In addition, a group in which only a solvent containing no drug was added to wells in which cells were seeded (positive control), and a group in which only a solvent containing no drug was added to wells containing only a medium (negative control) were provided. All groups were set to n=3 well.
The cells were cultured for 3 days after the addition of the drug, and the cell viability was evaluated using a CellTiter Glo (registered trademark) Reagent (Cat. #G7570, manufactured by Promega Corporation) with the intracellular ATP level as an index. […]

[1] = ES-2, with carboplatin 100 μmol/L
[2] = ES-2, used in combination with carboplatin (100 μmol/L, Table 6)
[3] = ES-2, used in combination with cisplatin (10 μmol/L, Table 3)

Structure (SMILES) | CI (combination with Carboplatin) | CI (combination with Cisplatin) | viability at 0.001 µM [1] [%] | viability at 0.003 µM [1] [%] | viability at 0.01 µM [1] [%] | viability at 0.03 µM [1] [%] | viability at 0.1 µM [1] [%] | viability at 0.3 µM [1] [%] | viability at 1 µM [1] [%] | viability at 3 µM [1] [%] | viability at 10 µM [1] [%] | viability at 0.001 µM (ES-2, with cisplatin 10 μmol/L) [%] | viability at 0.003 µM (ES-2, with cisplatin 10 μmol/L) [%] | viability at 0.01 µM (ES-2, with cisplatin 10 μmol/L) [%] | viability at 0.03 µM (ES-2, with cisplatin 10 μmol/L) [%] | viability at 0.1 µM (ES-2, with cisplatin 10 μmol/L) [%] | viability at 0.3 µM (ES-2, with cisplatin 10 μmol/L) [%] | viability at 1 µM (ES-2, with cisplatin 10 μmol/L) [%] | viability at 3 µM (ES-2, with cisplatin 10 μmol/L) [%] | viability at 10 µM (ES-2, with cisplatin 10 μmol/L) [%] | also measured
Nc1ccn([C@@H]2S[C@H](CO)[C@@H](O)[C@@H]2F)c(=O)n1 [Compound A, 1-(2-deoxy-2-fluoro-4-thio-β-D-arabinofuranosyl)cytosine] | 0.4 | 0.3 | 73 | 70 | 69 | 57 | 36 | 28 | 24 | 22 | 21 | 78 | 78 | 77 | 68 | 37 | 26 | 23 | 23 | 21 | IC50 [2]: 46 nM; IC50 [3]: 63.2 nM
Nc1ccn([C@@H]2O[C@H](CO)[C@@H](O)C2(F)F)c(=O)n1 [Gemcitabine] | 0.9 | 1.1 | 76 | 74 | 71 | 71 | 72 | 71 | 69 | 62 | 48 | 74 | 78 | 78 | 79 | 79 | 79 | 74 | 65 | 50 | IC50 value [3]: could not be calculated; IC50 [2]: ≥ 10000 nM
